Reference: ChEMBL document CHEMBL5126517, “Structure-Activity Relationship in the Leucettine Family of Kinase Inhibitors” (J Med Chem, 2022)
pEC50, pIC50: −log10 of the molar value.

Target: Glycogen synthase kinase-3 (Sus scrofa, UniProt B2LUN4+I6LNT8)
Test: Inhibition of porcine brain GSK-3alpha/beta using YRRAAVPPSPSLSRHSSPHQpSEDEEE as substrate incubated for 30 mins in presence of ATP by scintillation counting method
Format: tissue-based
Conditions: not given

For `CCCCCOc1ccc(NC2=N/C(=C\c3ccc4c(c3)OCO4)C(=O)N2)cc1`, the IC50 was > 10 µM.
With `O=C1NC(Nc2ccc(Oc3ccccc3)cc2)=N/C1=C\c1ccc2c(c1)OCO2` the IC50 was > 10 µM.

In order of falling IC50:
1. Cc1ccc(C)c(NC2=N/C(=C\c3ccc4c(c3)OCO4)C(=O)N2)c1  10 µM
2. O=C1NC(Nc2ccc(N3CCNCC3)cc2)=N/C1=C\c1ccc2c(c1)OCO2  2.4 µM

Target: Dual specificity protein kinase CLK4 (Mus musculus, UniProt O35493)
Test: Inhibition of GST-fused mouse recombinant CLK4 expressed in Escherichia coli using GRSRSRSRSRSR peptide as substrate incubated for 30 mins in presence of ATP by scintillation counting method
Conditions: not given

Chain of Dual specificity protein kinase CLK4 (O35493 whole entry, the tested form may be a part): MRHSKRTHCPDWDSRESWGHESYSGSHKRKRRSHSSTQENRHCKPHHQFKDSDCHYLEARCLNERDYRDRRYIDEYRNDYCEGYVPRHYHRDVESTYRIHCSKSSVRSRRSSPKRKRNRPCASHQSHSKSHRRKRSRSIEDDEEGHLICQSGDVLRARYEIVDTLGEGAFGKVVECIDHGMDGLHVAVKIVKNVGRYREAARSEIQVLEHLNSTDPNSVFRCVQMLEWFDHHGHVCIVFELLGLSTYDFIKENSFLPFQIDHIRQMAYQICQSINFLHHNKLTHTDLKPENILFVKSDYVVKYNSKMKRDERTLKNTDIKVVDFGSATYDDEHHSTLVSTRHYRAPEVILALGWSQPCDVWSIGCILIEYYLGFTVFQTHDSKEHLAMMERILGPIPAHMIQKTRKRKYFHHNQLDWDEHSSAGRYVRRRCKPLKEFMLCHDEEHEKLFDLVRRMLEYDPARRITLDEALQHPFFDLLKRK

In order of rising pIC50:
1. O=C1NC(Nc2ccc(Oc3ccccc3)cc2)=N/C1=C\c1ccc2c(c1)OCO2  6.12
2. CCCCCOc1ccc(NC2=N/C(=C\c3ccc4c(c3)OCO4)C(=O)N2)cc1  6.21
3. O=C1NC(Nc2ccc(N3CCNCC3)cc2)=N/C1=C\c1ccc2c(c1)OCO2  6.28
4. Cc1ccc(C)c(NC2=N/C(=C\c3ccc4c(c3)OCO4)C(=O)N2)c1  7.64

Target: Dual specificity protein kinase CLK3 (Mus musculus, UniProt O35492)
Test: Inhibition of GST-fused mouse recombinant CLK3 expressed in Escherichia coli using GRSRSRSRSRSR peptide as substrate incubated for 30 mins in presence of ATP by scintillation counting method
Conditions: not given

Chain of Dual specificity protein kinase CLK3 (O35492 whole entry, the tested form may be a part): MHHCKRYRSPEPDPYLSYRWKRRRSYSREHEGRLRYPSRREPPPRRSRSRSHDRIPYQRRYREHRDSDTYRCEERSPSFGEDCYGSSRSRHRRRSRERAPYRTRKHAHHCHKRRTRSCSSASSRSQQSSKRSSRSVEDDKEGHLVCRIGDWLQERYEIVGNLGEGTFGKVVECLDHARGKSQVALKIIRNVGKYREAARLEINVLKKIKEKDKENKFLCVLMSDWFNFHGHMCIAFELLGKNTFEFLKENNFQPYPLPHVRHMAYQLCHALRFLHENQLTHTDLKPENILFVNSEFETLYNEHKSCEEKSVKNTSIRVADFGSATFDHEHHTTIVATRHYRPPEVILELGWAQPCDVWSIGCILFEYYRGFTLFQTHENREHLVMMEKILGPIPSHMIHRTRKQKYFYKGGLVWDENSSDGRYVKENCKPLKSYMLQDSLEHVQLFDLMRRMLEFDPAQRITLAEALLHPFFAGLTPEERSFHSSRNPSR

First: CCCCCOc1ccc(NC2=N/C(=C\c3ccc4c(c3)OCO4)C(=O)N2)cc1
Second: O=C1NC(Nc2ccc(N3CCNCC3)cc2)=N/C1=C\c1ccc2c(c1)OCO2
The pIC50 of the first is lower: < 5.00 for the first, 5.05 for the second. The second is the more potent here.

`Cc1ccc(C)c(NC2=N/C(=C\c3ccc4c(c3)OCO4)C(=O)N2)c1` showed a pIC50 of 5.46.

Target: Dual specificity protein kinase CLK1 (Mus musculus, UniProt P22518)
Test: Inhibition of GST-fused mouse recombinant CLK1 expressed in Escherichia coli using GRSRSRSRSRSR peptide as substrate incubated for 30 mins in presence of ATP by scintillation counting method
Conditions: not given

Chain of Dual specificity protein kinase CLK1 (P22518 whole entry, the tested form may be a part): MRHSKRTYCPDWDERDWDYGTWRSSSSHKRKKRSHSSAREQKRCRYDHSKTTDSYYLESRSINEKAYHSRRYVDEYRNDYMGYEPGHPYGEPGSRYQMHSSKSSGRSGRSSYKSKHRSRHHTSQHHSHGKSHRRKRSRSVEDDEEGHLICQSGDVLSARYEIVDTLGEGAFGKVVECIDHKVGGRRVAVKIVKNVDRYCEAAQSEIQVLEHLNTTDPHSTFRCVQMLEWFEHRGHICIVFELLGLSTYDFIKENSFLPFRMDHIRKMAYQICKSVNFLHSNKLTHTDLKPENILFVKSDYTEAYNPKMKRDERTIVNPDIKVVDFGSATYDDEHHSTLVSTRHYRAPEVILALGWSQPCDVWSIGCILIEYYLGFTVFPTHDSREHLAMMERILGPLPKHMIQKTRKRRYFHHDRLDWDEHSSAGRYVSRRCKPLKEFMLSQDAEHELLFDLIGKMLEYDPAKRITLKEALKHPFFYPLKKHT

In order of falling pIC50:
1. Cc1ccc(C)c(NC2=N/C(=C\c3ccc4c(c3)OCO4)C(=O)N2)c1  7.30
2. O=C1NC(Nc2ccc(N3CCNCC3)cc2)=N/C1=C\c1ccc2c(c1)OCO2  6.38
3. CCCCCOc1ccc(NC2=N/C(=C\c3ccc4c(c3)OCO4)C(=O)N2)cc1  6.07
4. O=C1NC(Nc2ccc(Oc3ccccc3)cc2)=N/C1=C\c1ccc2c(c1)OCO2  5.74

Target: Dual specificity protein kinase CLK2 (Mus musculus, UniProt O35491)
Test: Inhibition of mouse recombinant GST-fused CLK2 expressed in Escherichia coli using GRSRSRSRSRSR peptide as substrate incubated for 30 mins in presence of ATP by scintillation counting method
Conditions: not given

Chain of Dual specificity protein kinase CLK2 (O35491 whole entry, the tested form may be a part): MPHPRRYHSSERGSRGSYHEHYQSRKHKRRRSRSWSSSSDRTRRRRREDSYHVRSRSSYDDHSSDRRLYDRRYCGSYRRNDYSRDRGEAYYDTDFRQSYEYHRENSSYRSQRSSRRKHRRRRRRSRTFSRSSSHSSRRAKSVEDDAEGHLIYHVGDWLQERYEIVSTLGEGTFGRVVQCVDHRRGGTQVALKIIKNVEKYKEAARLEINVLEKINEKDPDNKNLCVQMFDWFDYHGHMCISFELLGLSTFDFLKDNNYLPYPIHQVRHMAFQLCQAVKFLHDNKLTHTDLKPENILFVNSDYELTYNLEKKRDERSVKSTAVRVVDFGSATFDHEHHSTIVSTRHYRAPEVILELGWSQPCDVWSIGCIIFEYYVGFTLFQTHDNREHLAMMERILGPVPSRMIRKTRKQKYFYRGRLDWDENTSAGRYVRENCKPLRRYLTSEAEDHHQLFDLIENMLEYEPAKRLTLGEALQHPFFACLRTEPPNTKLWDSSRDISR

Compared with `CCCCCOc1ccc(NC2=N/C(=C\c3ccc4c(c3)OCO4)C(=O)N2)cc1`, `O=C1NC(Nc2ccc(Oc3ccccc3)cc2)=N/C1=C\c1ccc2c(c1)OCO2` is lower in pIC50: 5.51 for the first, < 5.00 for the second. The first is the more potent here.

Going from `Cc1ccc(C)c(NC2=N/C(=C\c3ccc4c(c3)OCO4)C(=O)N2)c1` to `O=C1NC(Nc2ccc(N3CCNCC3)cc2)=N/C1=C\c1ccc2c(c1)OCO2`, the pIC50 falls from 6.74 to 5.74 (1.00 log units). The first is the more potent here.

Target: Dual specificity tyrosine-phosphorylation-regulated kinase 1A (Homo sapiens, UniProt Q13627)
Test: Inhibition of GST-fused human recombinant DYRK1A expressed in Escherichia coli using GRSRSRSRSRSR peptide as substrate incubated for 30 mins in presence of ATP by scintillation counting method
Conditions: not given

In order of rising pIC50:
1. O=C1NC(Nc2ccc(Oc3ccccc3)cc2)=N/C1=C\c1ccc2c(c1)OCO2  6.04
2. CCCCCOc1ccc(NC2=N/C(=C\c3ccc4c(c3)OCO4)C(=O)N2)cc1  6.15
3. O=C1NC(Nc2ccc(N3CCNCC3)cc2)=N/C1=C\c1ccc2c(c1)OCO2  6.46
4. Cc1ccc(C)c(NC2=N/C(=C\c3ccc4c(c3)OCO4)C(=O)N2)c1  7.62

Target: Dual specificity tyrosine-phosphorylation-regulated kinase 1B (Homo sapiens, UniProt Q9Y463)
Conditions: not given

Chain of Dual specificity tyrosine-phosphorylation-regulated kinase 1B (Q9Y463 whole entry): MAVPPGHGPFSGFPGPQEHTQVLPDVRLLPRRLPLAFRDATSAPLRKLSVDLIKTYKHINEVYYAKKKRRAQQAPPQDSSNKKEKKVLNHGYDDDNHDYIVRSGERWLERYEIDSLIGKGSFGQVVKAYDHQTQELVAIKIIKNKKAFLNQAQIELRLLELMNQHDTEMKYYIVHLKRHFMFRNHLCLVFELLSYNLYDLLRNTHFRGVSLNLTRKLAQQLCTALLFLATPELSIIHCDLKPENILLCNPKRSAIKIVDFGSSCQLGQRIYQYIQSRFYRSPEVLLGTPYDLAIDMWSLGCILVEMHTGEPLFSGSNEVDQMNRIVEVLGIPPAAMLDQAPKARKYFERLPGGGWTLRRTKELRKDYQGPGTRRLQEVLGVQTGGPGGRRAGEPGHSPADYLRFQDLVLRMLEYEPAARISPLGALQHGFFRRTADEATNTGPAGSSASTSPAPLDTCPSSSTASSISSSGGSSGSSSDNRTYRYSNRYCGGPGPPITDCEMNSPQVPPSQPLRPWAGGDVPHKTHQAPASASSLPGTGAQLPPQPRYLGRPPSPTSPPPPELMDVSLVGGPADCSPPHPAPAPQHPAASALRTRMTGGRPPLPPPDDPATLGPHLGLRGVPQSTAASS

In order of falling pIC50:
1. Cc1ccc(C)c(NC2=N/C(=C\c3ccc4c(c3)OCO4)C(=O)N2)c1  7.04
2. O=C1NC(Nc2ccc(N3CCNCC3)cc2)=N/C1=C\c1ccc2c(c1)OCO2  6.02
3. CCCCCOc1ccc(NC2=N/C(=C\c3ccc4c(c3)OCO4)C(=O)N2)cc1  5.64
4. O=C1NC(Nc2ccc(Oc3ccccc3)cc2)=N/C1=C\c1ccc2c(c1)OCO2  5.40

Target: T1, Dual specificity tyrosine-phosphorylation-regulated kinase 2 (Homo sapiens, UniProt Q92630)
T1 sequence (Q92630 whole entry): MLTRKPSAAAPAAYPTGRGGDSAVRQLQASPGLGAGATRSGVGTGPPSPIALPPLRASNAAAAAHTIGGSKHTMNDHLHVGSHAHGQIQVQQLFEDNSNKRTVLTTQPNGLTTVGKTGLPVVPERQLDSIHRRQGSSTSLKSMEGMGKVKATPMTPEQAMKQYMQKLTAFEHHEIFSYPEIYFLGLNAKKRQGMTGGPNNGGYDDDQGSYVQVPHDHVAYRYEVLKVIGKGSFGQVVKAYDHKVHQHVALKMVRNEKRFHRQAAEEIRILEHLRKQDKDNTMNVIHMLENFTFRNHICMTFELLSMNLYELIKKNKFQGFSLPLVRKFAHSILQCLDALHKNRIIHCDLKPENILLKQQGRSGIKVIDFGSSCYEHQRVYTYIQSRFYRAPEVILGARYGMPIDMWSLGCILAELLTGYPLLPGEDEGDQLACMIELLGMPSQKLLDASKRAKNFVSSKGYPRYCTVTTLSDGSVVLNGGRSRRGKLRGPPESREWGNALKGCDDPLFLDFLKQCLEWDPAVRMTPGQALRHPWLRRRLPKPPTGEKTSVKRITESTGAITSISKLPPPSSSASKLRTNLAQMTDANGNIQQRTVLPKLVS
Test: Inhibition of GST-fused human recombinant DYRK2 expressed in Escherichia coli using GRSRSRSRSRSR peptide as substrate incubated for 30 mins in presence of ATP by scintillation counting method
Conditions: not given

In order of rising pIC50:
1. O=C1NC(Nc2ccc(Oc3ccccc3)cc2)=N/C1=C\c1ccc2c(c1)OCO2  5.96
2. CCCCCOc1ccc(NC2=N/C(=C\c3ccc4c(c3)OCO4)C(=O)N2)cc1  6.29
3. O=C1NC(Nc2ccc(N3CCNCC3)cc2)=N/C1=C\c1ccc2c(c1)OCO2  6.39
4. Cc1ccc(C)c(NC2=N/C(=C\c3ccc4c(c3)OCO4)C(=O)N2)c1  7.66

Target: T2, Dual specificity tyrosine-phosphorylation-regulated kinase 3 (Homo sapiens, UniProt O43781)
T2 sequence (O43781 whole entry): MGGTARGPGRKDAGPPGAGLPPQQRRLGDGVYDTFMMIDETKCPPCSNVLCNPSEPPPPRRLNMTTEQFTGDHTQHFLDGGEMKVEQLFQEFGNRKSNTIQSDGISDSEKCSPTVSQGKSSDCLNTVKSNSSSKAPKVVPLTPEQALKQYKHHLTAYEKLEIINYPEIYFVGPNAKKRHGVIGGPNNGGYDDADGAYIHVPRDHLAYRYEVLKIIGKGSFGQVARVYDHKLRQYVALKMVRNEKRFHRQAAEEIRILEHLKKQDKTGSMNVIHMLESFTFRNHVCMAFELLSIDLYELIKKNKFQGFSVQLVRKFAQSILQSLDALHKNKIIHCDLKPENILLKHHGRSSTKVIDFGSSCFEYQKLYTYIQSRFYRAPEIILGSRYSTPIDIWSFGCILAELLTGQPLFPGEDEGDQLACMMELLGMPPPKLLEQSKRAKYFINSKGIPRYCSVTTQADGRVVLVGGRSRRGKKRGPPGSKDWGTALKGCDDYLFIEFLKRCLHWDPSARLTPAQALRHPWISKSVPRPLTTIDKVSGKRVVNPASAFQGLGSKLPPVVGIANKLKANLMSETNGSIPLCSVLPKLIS
Test: Inhibition of GST-fused human recombinant DYRK3 expressed in Escherichia coli using GRSRSRSRSRSR peptide as substrate incubated for 30 mins in presence of ATP by scintillation counting method
Conditions: not given

In order of falling pIC50:
1. Cc1ccc(C)c(NC2=N/C(=C\c3ccc4c(c3)OCO4)C(=O)N2)c1  6.10
2. O=C1NC(Nc2ccc(N3CCNCC3)cc2)=N/C1=C\c1ccc2c(c1)OCO2  5.92
3. CCCCCOc1ccc(NC2=N/C(=C\c3ccc4c(c3)OCO4)C(=O)N2)cc1  5.15

Target: Serine/threonine-protein kinase pim-1 (Homo sapiens, UniProt P11309)
Test: Inhibition of human recombinant Pim1 expressed in Escherichia coli using histone H1 as substrate incubated for 30 mins in presence of ATP by scintillation counting method
Conditions: not given

Chain of Serine/threonine-protein kinase pim-1 (P11309 whole entry): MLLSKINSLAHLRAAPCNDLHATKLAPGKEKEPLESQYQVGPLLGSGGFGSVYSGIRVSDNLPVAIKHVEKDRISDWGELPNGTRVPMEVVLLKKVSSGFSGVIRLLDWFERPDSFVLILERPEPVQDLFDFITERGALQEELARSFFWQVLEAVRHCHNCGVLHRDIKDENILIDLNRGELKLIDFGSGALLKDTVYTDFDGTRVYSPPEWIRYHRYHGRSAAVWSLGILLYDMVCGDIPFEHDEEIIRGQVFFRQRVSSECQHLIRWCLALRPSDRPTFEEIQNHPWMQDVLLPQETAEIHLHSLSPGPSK

Compared with `CCCCCOc1ccc(NC2=N/C(=C\c3ccc4c(c3)OCO4)C(=O)N2)cc1`, `O=C1NC(Nc2ccc(N3CCNCC3)cc2)=N/C1=C\c1ccc2c(c1)OCO2` is higher in pIC50: ≤ 5.00 for the first, 5.21 for the second.

`Cc1ccc(C)c(NC2=N/C(=C\c3ccc4c(c3)OCO4)C(=O)N2)c1` showed a pIC50 of 5.11.

Target: Casein kinase 2 (Homo sapiens, UniProt P67870+P68400+P19784+Q8NEV1)
Test: Inhibition of human recombinant CK2 using RRRDDDSDDD peptide as substrate incubated for 30 mins in presence of ATP by scintillation counting method
Format: protein assay
Conditions: not given

In order of rising IC50:
1. CCCCCOc1ccc(NC2=N/C(=C\c3ccc4c(c3)OCO4)C(=O)N2)cc1  1.3 µM
2. Cc1ccc(C)c(NC2=N/C(=C\c3ccc4c(c3)OCO4)C(=O)N2)c1  1.6 µM
3. O=C1NC(Nc2ccc(N3CCNCC3)cc2)=N/C1=C\c1ccc2c(c1)OCO2  2.3 µM

System: HT-22
Test: Neuroprotective activity against glutamate-induced cell death in mouse HT-22 cells treated for 24 hrs by MTS assay
Format: functional, cell-based
Conditions: HT-22, 24 h

In order of falling pEC50:
1. O=C1NC(Nc2ccc(N3CCNCC3)cc2)=N/C1=C\c1ccc2c(c1)OCO2  6.04
2. CCCCCOc1ccc(NC2=N/C(=C\c3ccc4c(c3)OCO4)C(=O)N2)cc1  5.94
3. O=C1NC(Nc2ccc(Oc3ccccc3)cc2)=N/C1=C\c1ccc2c(c1)OCO2  5.62
4. Cc1ccc(C)c(NC2=N/C(=C\c3ccc4c(c3)OCO4)C(=O)N2)c1  5.15

System: U2OS
Test: Induction of PI3K/mTor-dependent autophagy in human U2OS cells assessed as number of LC3 foci per cell at 10 uM measured after 4 hrs
Format: cell-based
Conditions: filed as activator

In order of falling Activity:
1. Cc1ccc(C)c(NC2=N/C(=C\c3ccc4c(c3)OCO4)C(=O)N2)c1  26
2. O=C1NC(Nc2ccc(N3CCNCC3)cc2)=N/C1=C\c1ccc2c(c1)OCO2  7.3
3. CCCCCOc1ccc(NC2=N/C(=C\c3ccc4c(c3)OCO4)C(=O)N2)cc1  7
4. O=C1NC(Nc2ccc(Oc3ccccc3)cc2)=N/C1=C\c1ccc2c(c1)OCO2  4.6

Target: Cannabinoid receptor 1 (Homo sapiens, UniProt P21554)
Test: Antagonist activity at CP-55940-activated CB1 receptor (unknown origin) at 10 uM by beta-arrestin assay relative to control
Format: functional
Set-up: scale not given: the % may be the effect or the level left
Conditions: not given

Chain of Cannabinoid receptor 1 (P21554 whole entry): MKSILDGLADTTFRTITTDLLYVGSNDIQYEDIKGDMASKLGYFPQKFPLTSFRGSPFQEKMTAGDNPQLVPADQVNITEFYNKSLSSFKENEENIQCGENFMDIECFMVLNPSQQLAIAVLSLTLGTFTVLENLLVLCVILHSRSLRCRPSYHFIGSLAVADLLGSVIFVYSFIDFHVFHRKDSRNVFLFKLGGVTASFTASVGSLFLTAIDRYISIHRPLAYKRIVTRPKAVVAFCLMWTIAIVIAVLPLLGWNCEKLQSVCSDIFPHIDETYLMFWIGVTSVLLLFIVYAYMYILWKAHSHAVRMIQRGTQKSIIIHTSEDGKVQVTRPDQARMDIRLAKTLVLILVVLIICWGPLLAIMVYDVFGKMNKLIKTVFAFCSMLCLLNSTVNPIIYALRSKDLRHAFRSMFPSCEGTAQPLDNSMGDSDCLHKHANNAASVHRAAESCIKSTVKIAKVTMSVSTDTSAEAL

In order of falling Activity:
1. CCCCCOc1ccc(NC2=N/C(=C\c3ccc4c(c3)OCO4)C(=O)N2)cc1  37.4%
2. Cc1ccc(C)c(NC2=N/C(=C\c3ccc4c(c3)OCO4)C(=O)N2)c1  10.8%
3. O=C1NC(Nc2ccc(N3CCNCC3)cc2)=N/C1=C\c1ccc2c(c1)OCO2  -47.5%

Same assay, conditions: filed as antagonist

In the case of `O=C1NC(Nc2ccc(Oc3ccccc3)cc2)=N/C1=C\c1ccc2c(c1)OCO2`, the Activity was 73.5%.

System: not listed separately
Test: Neurotoxicity against mouse HT-22 cells assessed as cell survival at 20 uM treated for 24 hrs by MTS assay
Format: toxicity, cell-based
Conditions: ht-22, 24 h

In the case of `CCCCCOc1ccc(NC2=N/C(=C\c3ccc4c(c3)OCO4)C(=O)N2)cc1`, the Activity was “Non-Toxic”.
For `Cc1ccc(C)c(NC2=N/C(=C\c3ccc4c(c3)OCO4)C(=O)N2)c1`, the Activity was “Non-Toxic”.
With `O=C1NC(Nc2ccc(Oc3ccccc3)cc2)=N/C1=C\c1ccc2c(c1)OCO2` the Activity was “Non-Toxic”.
With `O=C1NC(Nc2ccc(N3CCNCC3)cc2)=N/C1=C\c1ccc2c(c1)OCO2` the Activity was “Non-Toxic”.
